Key:
barnyardgrass = assay: Test A pre-/postemergence herbicide test; type: in vivo, Echinochloa crus-galli
Method in brief: (§1)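 Sandy loam soil given preemergence directed spray; plants at 2 to 10 cm, one- to two-leaf stage, sprayed to runoff postemergence, compounds in non-phytotoxic solvent with surfactant. Injury rated visually versus untreated controls after about ten greenhouse days, 0 (no effect) to 100 (complete control); dash means not tested.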

large crabgrass [1] = assay: Test A pre-/postemergence herbicide test; type: in vivo, Digitaria sanguinalis
Method in brief: as §1

velvetleaf = assay: Test A pre-/postemergence herbicide test; type: in vivo, Abutilon theophrasti
Method in brief: as §1

bermudagrass = assay: Test C pre-/postemergence herbicide test; type: in vivo, Cynodon dactylon
Method in brief: (§2)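 Preemergence: seeds planted and treated with compound in non-phytotoxic solvent with surfactant; postemergence: plants at 2 to 18 cm (1- to 4-leaf stage) sprayed likewise. Kept in greenhouse 12 to 14 days, then visually rated against controls, 0 (no effect) to 100 (complete control).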

Surinam grass = assay: Test C pre-/postemergence herbicide test; type: in vivo, Urochloa decumbens
Method in brief: as §2

cocklebur = assay: Test C pre-/postemergence herbicide test; type: in vivo, Xanthium strumarium
Method in brief: as §2

corn = assay: Test C pre-/postemergence herbicide test; type: in vivo, Zea mays
Method in brief: as §2

large crabgrass [2] = assay: Test C pre-/postemergence herbicide test; type: in vivo, Digitaria sanguinalis
Method in brief: as §2

giant foxtail = assay: Test C pre-/postemergence herbicide test; type: in vivo, Setaria faberi
Method in brief: as §2

goosegrass = assay: Test C pre-/postemergence herbicide test; type: in vivo, Eleusine indica
Method in brief: as §2

kochia = assay: Test C pre-/postemergence herbicide test; type: in vivo, Kochia scoparia
Method in brief: as §2

[3] = test system: common (oilseed) sunflower; assay: Test C pre-/postemergence herbicide test; type: in vivo, Helianthus annuus; details: preemergence
Method in brief: as §2

[4] = Postemergence, 500 g ai/ha, 0 to 100 scale, 0 no effect, 100 complete control
[5] = Postemergence, 2000 g ai/ha, 0 to 100 scale, 0 no effect, 100 complete control
[6] = Preemergence, 500 g ai/ha, visual rating, 0 to 100 scale (0 no effect, 100 complete control)
[7] = Preemergence, 2000 g ai/ha, 0 to 100 scale, 0 no effect, 100 complete control
[8] = 31 g ai/ha, preemergence, scale 0 to 100
[9] = 125 g ai/ha, scale 0 (no effect) to 100 (complete control), visual, 12 to 14 days, preemergence
[10] = 250 g ai/ha, scale 0 to 100 (0 no effect, 100 complete control), visual, 12 to 14 days, preemergence
[11] = postemergence, 125 g ai/ha, scale 0 to 100
[12] = postemergence, 31 g ai/ha, scale 0 to 100
[13] = postemergence, 62 g ai/ha, scale 0 to 100
[14] = Postemergence, 250 g ai/ha, scale 0 to 100, 0 no effect, 100 complete control
[15] = Preemergence, 2000 g ai/ha, visual rating, 0 to 100 scale (0 no effect, 100 complete control)
[16] = preemergence, 500 g ai/ha, visual injury, 0 to 100 scale (0 no effect, 100 complete control)
[17] = 250 g ai/ha, scale 0-100, preemergence
[18] = 500 g ai/ha, scale 0 to 100 (0 no effect, 100 complete control), visual, 12 to 14 days, preemergence
[19] = 62 g ai/ha, preemergence, scale 0 to 100

## CCn1nc(C(C)(C)C)cc1C(=O)Nc1ccc(F)c(C(=O)NCCF)c1 [Compound 60]
barnyardgrass; [4]
  Plant response rating, Barnyardgrass: 35
barnyardgrass; [5]
  Plant response rating, Barnyardgrass: 70
barnyardgrass; [6]
  Barnyardgrass plant response rating: 50
barnyardgrass; [7]
  Barnyardgrass plant response rating: 85
Large crabgrass [1]; [4]
  Plant response rating, Crabgrass, Large: 20
Large crabgrass [1]; [5]
  Plant response rating, Crabgrass, Large: 55
Large crabgrass [1]; [6]
  Crabgrass, Large plant response rating: 75
Large crabgrass [1]; [7]
  Crabgrass, Large plant response rating: 95
velvetleaf; [5]
  Plant response rating, Velvetleaf: 20
velvetleaf; [6]
  Velvetleaf plant response rating: 65
velvetleaf; [7]
  Velvetleaf plant response rating: 95
bermudagrass; [8]
  Plant response rating, Bermudagrass: 30
bermudagrass; 62 g ai/ha, preemergence
  Plant response rating (0 = no effect, 100 = complete control), Bermudagrass: 80
bermudagrass; [9]
  Plant response rating, Bermudagrass: 100
bermudagrass; [10]
  Plant response rating, Bermudagrass: 100
bermudagrass; Postemergence, 250 g ai/ha, scale 0 to 100
  Bermudagrass plant response rating: 5
bermudagrass; [11]
  Plant response rating, Bermudagrass: 0
bermudagrass; [12]
  Plant response rating, Bermudagrass: 0
bermudagrass; [13]
  Plant response rating, Bermudagrass: 0
Surinam grass; [8]
  Plant response rating, Surinam Grass: 0
Surinam grass; 62 g ai/ha, preemergence
  Plant response rating (0 = no effect, 100 = complete control), Surinam Grass: 0
Surinam grass; [9]
  Plant response rating, Surinam Grass: 0
Surinam grass; [10]
  Plant response rating, Surinam Grass: 50
Surinam grass; [14]
  Plant response rating, Surinam Grass: 5
Surinam grass; [11]
  Plant response rating, Surinam Grass: 5
Surinam grass; [13]
  Plant response rating, Surinam Grass: 5
cocklebur; [8]
  Plant response rating, Cocklebur: 0
cocklebur; 62 g ai/ha, preemergence
  Plant response rating (0 = no effect, 100 = complete control), Cocklebur: 0
cocklebur; [9]
  Plant response rating, Cocklebur: 0
cocklebur; [10]
  Plant response rating, Cocklebur: 5
cocklebur; [14]
  Plant response rating, Cocklebur: 10
cocklebur; [11]
  Plant response rating, Cocklebur: 10
cocklebur; [12]
  Plant response rating, Cocklebur: 10
cocklebur; [13]
  Plant response rating, Cocklebur: 10
corn; [8]
  Plant response rating, Corn: 0
corn; 62 g ai/ha, preemergence
  Plant response rating (0 = no effect, 100 = complete control), Corn: 0
corn; [9]
  Plant response rating, Corn: 0
corn; [10]
  Plant response rating, Corn: 0
corn; [14]
  Plant response rating, Corn: 0
corn; [11]
  Plant response rating, Corn: 0
corn; [13]
  Plant response rating, Corn: 0
Large crabgrass [2]; [8]
  Plant response rating, Crabgrass, Large: 80
Large crabgrass [2]; 62 g ai/ha, preemergence
  Plant response rating (0 = no effect, 100 = complete control), Crabgrass, Large: 90
Large crabgrass [2]; [9]
  Plant response rating, Crabgrass, Large: 90
Large crabgrass [2]; [10]
  Plant response rating, Crabgrass, Large: 95
Large crabgrass [2]; [14]
  Plant response rating, Crabgrass, Large: 5
Large crabgrass [2]; [11]
  Plant response rating, Crabgrass, Large: 0
Large crabgrass [2]; [13]
  Plant response rating, Crabgrass, Large: 0
Giant foxtail; [8]
  Plant response rating, Foxtail, Giant: 0
Giant foxtail; 62 g ai/ha, preemergence
  Plant response rating (0 = no effect, 100 = complete control), Foxtail, Giant: 0
Giant foxtail; [9]
  Plant response rating, Foxtail, Giant: 15
Giant foxtail; [10]
  Plant response rating, Foxtail, Giant: 80
Giant foxtail; [14]
  Plant response rating, Foxtail, Giant: 5
Giant foxtail; [11]
  Plant response rating, Foxtail, Giant: 5
Giant foxtail; [13]
  Plant response rating, Foxtail, Giant: 0
goosegrass; [8]
  Plant response rating, Goosegrass: 10
goosegrass; 62 g ai/ha, preemergence
  Plant response rating (0 = no effect, 100 = complete control), Goosegrass: 55
goosegrass; [9]
  Plant response rating, Goosegrass: 85
goosegrass; [10]
  Plant response rating, Goosegrass: 95
goosegrass; [14]
  Plant response rating, Goosegrass: 5
goosegrass; [11]
  Plant response rating, Goosegrass: 0
goosegrass; [13]
  Plant response rating, Goosegrass: 0
kochia; [8]
  Plant response rating, Kochia: 80
kochia; 62 g ai/ha, preemergence
  Plant response rating (0 = no effect, 100 = complete control), Kochia: 80
kochia; [9]
  Plant response rating, Kochia: 90
kochia; [10]
  Plant response rating, Kochia: 90
kochia; [14]
  Plant response rating, Kochia: 20
kochia; [11]
  Plant response rating, Kochia: 20
kochia; [13]
  Plant response rating, Kochia: 10
[3]; 31 g ai/ha, scale 0 to 100
  Plant response rating, Sunflower: 0
[3]; 62 g ai/ha
  Plant response rating (0 = no effect, 100 = complete control), Sunflower: 0
[3]; 125 g ai/ha, scale 0 (no effect) to 100 (complete control), visual, 12 to 14 days
  Plant response rating, Sunflower: 0
[3]; 250 g ai/ha, scale 0 to 100 (0 no effect, 100 complete control), visual, 12 to 14 days
  Plant response rating, Sunflower: 0

## CCc1nn(C(C)(C)C)nc1C(=O)Nc1cccc(C(=O)NC2CC2)c1 [Compound 417]
barnyardgrass; [4]
  Barnyardgrass plant response rating: 65
barnyardgrass; [5]
  Plant response rating, Barnyardgrass: 80
barnyardgrass; [15]
  Barnyardgrass plant response rating: 85
barnyardgrass; [16]
  Barnyardgrass plant response rating: 60
Large crabgrass [1]; [4]
  Crabgrass, Large plant response rating: 30
Large crabgrass [1]; [5]
  Plant response rating, Crabgrass, Large: 85
Large crabgrass [1]; [15]
  Crabgrass, Large plant response rating: 95
Large crabgrass [1]; [16]
  Crabgrass, Large plant response rating: 75
velvetleaf; [4]
  Velvetleaf plant response rating: 60
velvetleaf; [5]
  Plant response rating, Velvetleaf: 90
velvetleaf; [15]
  Velvetleaf plant response rating: 70
velvetleaf; [16]
  Velvetleaf plant response rating: 55
bermudagrass; 62 g ai/ha, preemergence, scale 0 to 100, 0 no effect, 100 complete control
  Plant response rating, Bermudagrass: 100
bermudagrass; 125 g ai/ha, preemergence
  Plant response rating (0 = no effect, 100 = complete control), Bermudagrass: 100
bermudagrass; [17]
  Plant response rating, Bermudagrass: 100
bermudagrass; [18]
  Plant response rating, Bermudagrass: 100
Surinam grass; [19]
  Plant response rating, Surinam Grass: 0
Surinam grass; 125 g ai/ha, preemergence
  Plant response rating (0 = no effect, 100 = complete control), Surinam Grass: 75
Surinam grass; [18]
  Plant response rating, Surinam Grass: 95
cocklebur; [19]
  Plant response rating, Cocklebur: 0
cocklebur; 125 g ai/ha, preemergence
  Plant response rating (0 = no effect, 100 = complete control), Cocklebur: 0
cocklebur; [17]
  Plant response rating, Cocklebur: 0
cocklebur; [18]
  Plant response rating, Cocklebur: 0
corn; [19]
  Plant response rating, Corn: 0
corn; 125 g ai/ha, preemergence
  Plant response rating (0 = no effect, 100 = complete control), Corn: 0
corn; [17]
  Plant response rating, Corn: 10
corn; [18]
  Plant response rating, Corn: 65
Large crabgrass [2]; [19]
  Plant response rating, Crabgrass, Large: 100
Large crabgrass [2]; 125 g ai/ha, preemergence
  Plant response rating (0 = no effect, 100 = complete control), Crabgrass, Large: 100
Large crabgrass [2]; [17]
  Plant response rating, Crabgrass, Large: 100
Large crabgrass [2]; [18]
  Plant response rating, Crabgrass, Large: 100
Giant foxtail; [19]
  Plant response rating, Foxtail, Giant: 65
Giant foxtail; 125 g ai/ha, preemergence
  Plant response rating (0 = no effect, 100 = complete control), Foxtail, Giant: 90
Giant foxtail; [17]
  Plant response rating, Foxtail, Giant: 95
Giant foxtail; [18]
  Plant response rating, Foxtail, Giant: 100
goosegrass; [19]
  Plant response rating, Goosegrass: 95
goosegrass; 125 g ai/ha, preemergence
  Plant response rating (0 = no effect, 100 = complete control), Goosegrass: 100
goosegrass; [17]
  Plant response rating, Goosegrass: 100
goosegrass; [18]
  Plant response rating, Goosegrass: 100
kochia; [19]
  Plant response rating, Kochia: 0
kochia; 125 g ai/ha, preemergence
  Plant response rating (0 = no effect, 100 = complete control), Kochia: 85
kochia; [17]
  Plant response rating, Kochia: 100
kochia; [18]
  Plant response rating, Kochia: 100
[3]; 62 g ai/ha, scale 0 to 100
  Plant response rating, Sunflower: 0
[3]; 125 g ai/ha
  Plant response rating (0 = no effect, 100 = complete control), Sunflower: 0
[3]; 500 g ai/ha, scale 0 to 100 (0 no effect, 100 complete control), visual, 12 to 14 days
  Plant response rating, Sunflower: 0

Reference: patent US20060069132A1, “Azolecarboxamide herbicides” (priority 2004, published 2006)
